This passage reports IC50 results from patent US20210387966A1, “2-AMINO-N-HETEROARYL-NICOTINAMIDES AS NAV1.8 INHIBITORS” (Merck Sharp & Dohme Corp., priority 2018, published 2021).

As usually defined, the IC50 is the midpoint of a concentration-inhibition curve.

This assay deals with T1, human Nav1.8 channels (Homo sapiens, UniProt Q9Y5Y9).
T1 construct: expressed in transfected cells
T1 sequence (Q9Y5Y9 whole entry): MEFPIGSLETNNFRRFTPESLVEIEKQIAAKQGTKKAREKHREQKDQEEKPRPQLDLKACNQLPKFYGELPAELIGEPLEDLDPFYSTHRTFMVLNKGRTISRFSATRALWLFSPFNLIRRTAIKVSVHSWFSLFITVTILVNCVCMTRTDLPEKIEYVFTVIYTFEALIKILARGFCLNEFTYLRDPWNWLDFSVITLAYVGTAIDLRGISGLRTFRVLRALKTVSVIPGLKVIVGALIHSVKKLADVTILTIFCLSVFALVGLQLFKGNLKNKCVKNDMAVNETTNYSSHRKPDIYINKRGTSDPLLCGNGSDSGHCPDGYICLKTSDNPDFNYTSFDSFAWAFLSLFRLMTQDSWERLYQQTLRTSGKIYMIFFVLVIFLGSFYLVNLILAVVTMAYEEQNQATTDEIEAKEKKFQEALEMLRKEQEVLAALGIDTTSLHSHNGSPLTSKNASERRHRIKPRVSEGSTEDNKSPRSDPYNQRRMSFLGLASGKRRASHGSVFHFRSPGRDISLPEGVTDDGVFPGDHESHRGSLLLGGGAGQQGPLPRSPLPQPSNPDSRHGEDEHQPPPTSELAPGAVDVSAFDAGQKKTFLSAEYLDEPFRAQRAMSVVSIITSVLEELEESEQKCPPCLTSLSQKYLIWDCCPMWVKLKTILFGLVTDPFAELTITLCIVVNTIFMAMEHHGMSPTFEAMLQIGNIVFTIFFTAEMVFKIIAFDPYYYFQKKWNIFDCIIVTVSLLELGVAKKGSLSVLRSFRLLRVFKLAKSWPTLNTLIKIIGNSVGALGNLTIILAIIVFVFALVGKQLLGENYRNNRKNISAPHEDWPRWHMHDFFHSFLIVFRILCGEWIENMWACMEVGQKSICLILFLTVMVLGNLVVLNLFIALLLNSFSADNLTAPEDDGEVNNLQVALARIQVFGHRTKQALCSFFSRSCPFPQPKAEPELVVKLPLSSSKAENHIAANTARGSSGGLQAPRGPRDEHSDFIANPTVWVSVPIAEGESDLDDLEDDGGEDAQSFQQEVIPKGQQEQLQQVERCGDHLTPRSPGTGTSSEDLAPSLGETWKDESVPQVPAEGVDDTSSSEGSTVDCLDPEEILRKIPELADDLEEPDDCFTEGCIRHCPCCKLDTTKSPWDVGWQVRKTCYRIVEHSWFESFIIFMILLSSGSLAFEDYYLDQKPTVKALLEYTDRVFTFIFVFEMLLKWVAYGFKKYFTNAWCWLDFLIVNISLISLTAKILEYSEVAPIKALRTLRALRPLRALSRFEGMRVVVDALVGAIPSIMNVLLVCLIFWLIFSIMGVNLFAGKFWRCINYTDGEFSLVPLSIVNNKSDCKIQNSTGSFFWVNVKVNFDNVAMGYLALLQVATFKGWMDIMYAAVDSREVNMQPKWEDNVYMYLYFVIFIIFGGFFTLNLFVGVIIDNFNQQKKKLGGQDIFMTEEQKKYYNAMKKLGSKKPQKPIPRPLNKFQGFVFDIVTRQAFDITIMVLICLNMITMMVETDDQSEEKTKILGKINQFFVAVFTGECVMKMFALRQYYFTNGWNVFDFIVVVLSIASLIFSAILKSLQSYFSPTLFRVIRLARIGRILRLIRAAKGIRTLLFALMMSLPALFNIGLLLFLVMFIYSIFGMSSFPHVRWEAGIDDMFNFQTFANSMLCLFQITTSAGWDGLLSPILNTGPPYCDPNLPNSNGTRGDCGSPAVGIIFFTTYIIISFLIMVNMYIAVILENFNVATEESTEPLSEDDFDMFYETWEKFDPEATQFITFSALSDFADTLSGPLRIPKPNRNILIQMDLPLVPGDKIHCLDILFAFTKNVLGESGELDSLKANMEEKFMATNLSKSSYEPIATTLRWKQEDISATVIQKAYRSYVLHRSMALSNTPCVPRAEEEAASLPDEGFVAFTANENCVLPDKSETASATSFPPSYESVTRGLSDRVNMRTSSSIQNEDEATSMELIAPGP
Briefly: Nav1.8 Qube automated patch-clamp assay. The format is cell-based. Conditions: human Nav1.8 stably expressed in HEK 293 cells; whole-cell voltage clamp, room temperature; resting or inactivated state not specified; read-out: IC50 values (nM) for Examples in the Nav1.8 Qube Assay. On the procedure: Compounds were tested on human Nav1.8 and Nav1.5 channels stably expressed in human embryo kidney (HEK) 293 cells. Sodium current measurements on Qube® were conducted as follows: automated 384-well patch-clamp assays on the Qube® platform (Sophion Biosciences) were used to measure the inhibition of sodium flow through human Nav1.8 and Nav1.5 channels. Whole-cell voltage-clamp recordings were performed in QChips® (Sophion Biosciences) at room temperature. Nav1.8 current measurements on Qube® were obtained as follows: Nav1.8 currents were elicited with a 10 second 1 Hertz (Hz) pulse train from a holding potential of −90 millivolts (mV), delivered to the cells once per minute in the control condition (DMSO only) and after compound addition. The 1 hertz pulse train stimulation consisted of ten test pulses to 10 millivolt (mV) for 20 milliseconds (ms), each of which was followed by a 980 millisecond repolarization to −67 millivolts. At the end of the 10 second pulse train stimulation, a second hyperpolarization step to −100 millivolt (mV) was used to recover Nav1.8 from fast inactivation. The peak currents elicited by the 1st and 10th test pulses were used to determine IC50 values for resting inhibition and inactivated state inhibition. Nav1.5 current measurements on Qube® were obtained as follows: Nav1.5 currents were elicited with a 20 second 3 Hertz pulse train in the control condition (DMSO only) and after compound addition. The pulse train consisted of sixty 20 millisecond test pulses to 0 millivolt from a holding potential of −80 millivolt (mV). The average peak currents elicited by the last 3 test pulses were used to determine IC50 values for Nav1.5 inhibition.
The following buffers were used for the Qube® recordings: External buffer for Nav1.8 Qube® recording: 150 NaCl, 2 CaCl2, 5 KCl, 1 Mg Cl2, 10 HEPES, 12 Dextrose; External buffer for Qube® Nav1.5 recording: 120 N-Methyl-D-Glucamine, 40 NaCl, 1 KCl, 2.7 CaCl2, 5 HEPES, 0.5 MgCl2: and Internal buffer for Qube® recording: 120 CsF, 30 CsCl, 10 EGTA, 5 HEPES, 5 NaF, 2 MgCl2.
For all Qube® experiments offline analysis was used to determine percent inhibition as a function of drug concentration. IC50 values were determined by fitting to the Hill equation.
`NS(=O)(=O)c1cc(NC(=O)c2cc(C(F)(F)F)cnc2N2CCOC(C(F)(F)F)CC2)ccn1` (single isomer, unassigned) [Example 118, (R or S)-N-(2-sulfamoylpyridin-4-yl)-5-(trifluoromethyl)-2-(7-(trifluoromethyl)-1,4-oxazepan-4-yl)nicotinamide]: the half-maximal inhibitory concentration (IC50) was 54 nM. For `NS(=O)(=O)c1cc(NC(=O)c2cc(C(F)(F)F)cnc2N2CCOC(C(F)(F)F)CC2)ccn1` (single isomer, unassigned) [Example 119, (S or R)-N-(2-sulfamoylpyridin-4-yl)-5-(trifluoromethyl)-2-(7-(trifluoromethyl)-1,4-oxazepan-4-yl)nicotinamide] the value was 30 nM; for `CC1CN(c2ncc(C(F)(F)F)cc2C(=O)Nc2ccnc(S(N)(=O)=O)c2)CCC(C(F)(F)F)O1` (single isomer, unassigned) [Example 120, 2-[(2S,7R or 2R,7S)-2-methyl-7-(trifluoromethyl)-1,4-oxazepan-4-yl]-N-(2-sulfamoylpyridin-4-yl)-5-(trifluoromethyl)pyridine-3-carboxamide], 2.9 nM; for `CC1CN(c2ncc(C(F)(F)F)cc2C(=O)Nc2ccnc(S(N)(=O)=O)c2)CCC(C(F)(F)F)O1` (single isomer, unassigned) [Example 122, 2-((2R,7R or 2S,7S)-2-methyl-7-(trifluoromethyl)-1,4-oxazepan-4-yl)-N-(2-sulfamoylpyridin-4-yl)-5-(trifluoromethyl)nicotinamide], 20 nM. The figure for `CC1CN(c2ncc(C(F)(F)F)cc2C(=O)Nc2ccnc(S(N)(=O)=O)c2)CCC(C(F)(F)F)O1` (single isomer, unassigned) [Example 123, 2-((2S,7S or 2R,7R)-2-methyl-7-(trifluoromethyl)-1,4-oxazepan-4-yl)-N-(2-sulfamoylpyridin-4-yl)-5-(trifluoromethyl)nicotinamide] is 28 nM; for `Cc1nc(N2CCOC(C(F)F)C2)c(C(=O)Nc2ccnc(S(N)(=O)=O)c2)cc1Cl` (single isomer, unassigned) [Example 124, (S or R)-5-chloro-2-(2-(difluoromethyl)morpholino)-6-methyl-N-(2-sulfamoylpyridin-4-yl)nicotinamide] it is 50 nM; for `Cc1nc(N2CCOC(C(F)F)C2)c(C(=O)Nc2ccnc(S(N)(=O)=O)c2)cc1Cl` (single isomer, unassigned) [Example 125, (R or S)-5-chloro-2-(2-(difluoromethyl)morpholino)-6-methyl-N-(2-sulfamoylpyridin-4-yl)nicotinamide] it is 144 nM. Regarding `N#CC1CCN(c2ncc(C(F)(F)F)cc2C(=O)Nc2ccnc(S(N)(=O)=O)c2)C1` (single isomer, unassigned) [Example 129, (S or R)-2-(3-cyanopyrrolidin-1-yl)-N-(2-sulfamoylpyridin-4-yl)-5-(trifluoromethyl)nicotinamide], the 50% inhibitory concentration (IC50) was found to be 753 nM. With `N#CC1CCN(c2ncc(C(F)(F)F)cc2C(=O)Nc2ccnc(S(N)(=O)=O)c2)C1` (single isomer, unassigned) [Example 130, (R or S)-2-(3-cyanopyrrolidin-1-yl)-N-(2-sulfamoylpyridin-4-yl)-5-(trifluoromethyl)nicotinamide], the IC50 was determined as 3880 nM. For `CC1(C)CN(c2ncc(C(F)(F)F)cc2C(=O)Nc2ccnc(S(N)(=O)=O)c2)CC(C(F)(F)F)O1` (single isomer, unassigned) [Example 135, (R or S)-2-(2,2-dimethyl-6-(trifluoromethyl)morpholino)-N-(2-sulfamoylpyridin-4-yl)-5-(trifluoromethyl)nicotinamide] the value was 57 nM. As to `CC1(C)CN(c2ncc(C(F)(F)F)cc2C(=O)Nc2ccnc(S(N)(=O)=O)c2)CC(C(F)(F)F)O1` (single isomer, unassigned) [Example 136, (S or R)-2-(2,2-dimethyl-6-(trifluoromethyl)-morpholino)-N-(2-sulfamoylpyridin-4-yl)-5-(trifluoromethyl)nicotinamide], the 50% inhibitory concentration (IC50) was found to be 494 nM.

As to `CC1CN(c2ncc(C(F)(F)F)cc2C(=O)Nc2ccnc(S(C)(=O)=O)c2)CCC1(F)F` (single isomer, unassigned) [Example 148, 2-[(3R or 3S)-4,4-difluoro-3-methyl-1-piperidyl]-N-(2-methylsulfonyl-4-pyridyl)-5-(trifluoro-methyl)pyridine-3-carboxamide], the half-maximal inhibitory concentration (IC50) is 26 nM. On to `CC1CN(c2ncc(C(F)(F)F)cc2C(=O)Nc2ccnc(S(C)(=O)=O)c2)CCC1(F)F` (single isomer, unassigned) [Example 149, 2-[(3S or 3R)-4,4-difluoro-3-methyl-1-piperidyl]-N-(2-methylsulfonyl-4-pyridyl)-5-(trifluoro-methyl)pyridine-3-carboxamide], for which the IC50 is 57 nM. The figure for `CC1CN(c2ncc(C(F)(F)F)cc2C(=O)Nc2ccnc(C#N)c2)CCC1(F)F` (single isomer, unassigned) [Example 154, (S or R)-N-(2-cyanopyridin-4-yl)-2-(4,4-difluoro-3-methylpiperidin-1-yl)-5-(trifluoro-methyl)nicotinamide] is 84 nM; for `CC1CN(c2ncc(C(F)(F)F)cc2C(=O)Nc2ccnc(C#N)c2)CCC1(F)F` (single isomer, unassigned) [Example 155, (R or S)-N-(2-cyanopyridin-4-yl)-2-(4,4-difluoro-3-methylpiperidin-1-yl)-5-(trifluoro-methyl)nicotinamide] it is 60 nM; for `CC1CN(c2ncc(C(F)(F)F)cc2C(=O)Nc2ccnc(C(N)=O)c2)CCC1(F)F` (single isomer, unassigned) [Example 157, N-(2-carbamoyl-4-pyridyl)-2-[(3R or 3S)-4,4-difluoro-3-methyl-1-piperidyl]-5-(trifluoromethyl)-pyridine-3-carboxamide] it is 82 nM.

Regarding `CC1CN(c2ncc(C(F)(F)F)cc2C(=O)Nc2ccnc(C(N)=O)c2)CCC1(F)F` (single isomer, unassigned) [Example 158, N-(2-carbamoyl-4-pyridyl)-2-[(3S or 3R)-4,4-difluoro-3-methyl-1-piperidyl]-5-(trifluoromethyl)-pyridine-3-carboxamide], the IC50 stood at 41 nM.

With `CC1CN(c2nc(C(F)(F)F)ccc2C(=O)Nc2ccnc(S(N)(=O)=O)c2)CCC1(F)F` (single isomer, unassigned) [Example 162, (R or S)-2-(4,4-difluoro-3-methylpiperidin-1-yl)-N-(2-sulfamoylpyridin-4-yl)-6-(trifluoromethyl)nicotinamide], the IC50 amounted to 22 nM. For `CC1CN(c2nc(C(F)(F)F)ccc2C(=O)Nc2ccnc(S(N)(=O)=O)c2)CCC1(F)F` (single isomer, unassigned) [Example 163, (S or R)-2-(4,4-difluoro-3-methylpiperidin-1-yl)-N-(2-sulfamoylpyridin-d-yl)-6-(trifluoromethyl)nicotinamide] the value was 10 nM; for `CC1CN(c2nc(C(F)(F)F)c(Cl)cc2C(=O)Nc2ccnc(S(N)(=O)=O)c2)CCC1(F)F` (single isomer, unassigned) [Example 164, (S or R)-5-chloro-2-(4,4-difluoro-3-methylpiperidin-1-yl)-N-(2-sulfamoylpyridin-4-yl)-6-(trifluoromethyl)nicotinamide], 3.3 nM.

On to `CC1CN(c2nc(C(F)(F)F)c(Cl)cc2C(=O)Nc2ccnc(S(N)(=O)=O)c2)CCC1(F)F` (single isomer, unassigned) [Example 165, (R or S)-5-chloro-2-(4,4-difluoro-3-methylpiperidin-1-yl)-N-(2-sulfamoylpyridin-4-yl)-6-(trifluoromethyl)nicotinamide], for which the half-maximal inhibitory concentration (IC50) came to 2.1 nM.

With `NS(=O)(=O)c1cncc(NC(=O)c2cc(C(F)(F)F)cnc2N2CCC(F)(F)CC2)n1` [Example 1, 2-(4,4-difluoropiperidin-1-yl)-N-(6-sulfamoylpyrazin-2-yl)-5-(trifluoromethyl)nicotinamide], the IC50 was determined as 406 nM.

Take `O=C(Nc1nccc(O)n1)c1cc(C(F)(F)F)cnc1N1CCC(F)(F)CC1` [Example 2, 2-(4,4-difluoropiperidin-1-yl)-N-(4-hydroxypyrimidin-2-yl)-5-(trifluoromethyl)nicotinamide]: the IC50 amounted to 2190 nM. For `O=C(O)c1ccc(NC(=O)c2cc(C(F)(F)F)cnc2N2CCC(F)(F)CC2)cn1` [Example 3, 5-(2-(4,4-difluoropiperidin-1-yl)-5-(trifluoromethyl)nicotinamido)picolinic acid], the IC50 stood at 2380 nM.
